Values quoted from earlier work, collected in US20100210643A1, “sGC STIMULATORS, sGC ACTIVATORS AND COMBINATIONS FOR THE TREATMENT OF UROLOGICAL DISORDERS” (BAYER SCHERING PHARMA AKTIENGESELLSCHAFT, priority 2007, published 2010).

Assays:
[1] = tested on: bladder of female Guinea Pigs; conditions: literature (Gillespie 2004)
[2] = tested on: pre-contracted human prostate tissue; conditions: in vitro; literature (Uckert 2001)

| SMILES | relaxation of bladder [1] | relaxation of pre-contracted human prostate tissue [2] |
| --- | --- | --- |
| CC(C)Cn1c(=O)n(C)c(=O)c2[nH]cnc21 [IBMX] | could relax |  |
| CCCOc1ccccc1-c1nc2nn[nH]c2c(=O)[nH]1 [Zaprinast] | ineffective | able to relax |
